Source: EP4818178A1, “PREPARATION AND USE OF PYRIMIDOTHIOPYRANONE KRAS MUTANT PROTEIN INHIBITOR” (Ya Therapeutics Inc, priority 2024, dated 2025)

Molecular target: KRasG12D (Homo sapiens, UniProt P01116, G12D)
Assay: KRAS inhibitory activity test, TR-FRET (inhibition of binding of KRasG12D to GTP, SOS/GTP nucleotide exchange)
Assay type: biochemical
Conditions: read-out: IC50 values of the compounds for inhibiting KRAS enzymes, G12D
Protocol: • 1. […] Reagent Preparation: • a. Storage Reagents:
Prepare a 1L solution by mixing 20mL of 1000mM HEPES, 20mL of 500mM EDTA, 10mL of 5M sodium chloride, 0.1mL of 100% Tween 20, and 949.9mL of water. Sterilize by filtration and store at 4°C.
Prepare a 1L solution by mixing 20mL of 1000mM HEPES, 10mL of 1000mM magnesium chloride, 30mL of 5M sodium chloride, 0.05mL of 100% Tween 20, and 939.95mL of water. Sterilize by filtration and store at 4°C. 3) KRAS/Bodipy GDP/Tb-SA Mixture: Mix 9.5 µL of 95 µM KRasG12D protein with 440.5 µL of KRAS nucleotide exchange buffer. Incubate at room temperature for 1 hour. Then, mix with 8.4 µL of 17.9 µM Tb-SA, 1.8 µL of 5 mM Bodipy GDP, and 9539.8 µL of KRAS experimental buffer to prepare […]. After mixing, incubate at room temperature for 6 hours and store at -80°C.
• 1) KRAS Enzyme Solution: Mix 73.3 µL of KRAS/Bodipy GDP/Tb-SA mixture with 2126.7 µL of KRAS experimental buffer to prepare a 2200 µL solution. • 2) SOS/GTP Mixture
c. Experimental Procedure: Mix 1.59 µL of 166 µM SOS protein with 198 µL of 100 mM... GTP and 0.41 µL KRAS buffer were prepared to a 2200 µL solution. The stock solution concentration of the control compound was 1 mM, and the stock solution concentration of the test compound was 10 mM. 9 µL of the control compound and the test compound were transferred to a 384-LDV plate. The compound on the LDV plate was 3-fold diluted 10-point using Bravo. 9 nL of the compound on the LDV plate was transferred to the experimental plate using ECHO. 3 µL of a 3 nM Kras/0.5 nM TB-SA/30 nM BodipyGDP mixture and 3 µL of Ras buffer were added to each well of the experimental plate using a Dragonfly autopilot. The plate was centrifuged at 1000 rpm for 1 minute. The plate was incubated at room temperature for 1 hour. 3 µL of 120 nM SOS/9 mM KRAS buffer was added to each well of the experimental plate using a Dragonfly autopilot. The […] was centrifuged at 1000 rpm for 1 minute; the plate was incubated at room temperature for 1 hour; the plate was read and the data were recorded using Envision; the data were analyzed using Excel and Xlfit to calculate the IC50of the test compound. "++++" indicates IC50≤ 10 nM; "+++" indicates 10 nM < IC50≤ 100 nM; "++" indicates 100 nM < IC50≤ 2000 nM; "+" indicates 2000 nM < IC50.

Molecule: 7-(3-amino-2-fluoro-5-methyl-6-(trifluoromethyl)phenyl)-4-(1R,5S)-3,8-diazabicyclo [3.2.1]octane-3-yl)-2-(((2R,7AS)-2-fluorotetrahydro-1H-pyrrolazin-7a(5H)-yl)methox y)-7,8-dihydro-5H-thiopyrano[4,3-d]pyrimidine-6,6-dioxide [Compound 30]
- IC50: ≤ 10 nM

Molecule: C=C1CN2CCC[C@@]2(COc2nc3c(c(N4CC5CCC(C4)N5)n2)CS(=O)(=O)C(c2c(F)c(N)cc(C#CC)c2C(F)(F)F)C3)C1 (stereo partly drawn) [Compound 22, 7-(3-amino-2-fluoro-5-(prop-1-yn-1-yl)-6-(trifluoromethyl)phenyl)-4-(3,8-diazabicyclo[3.2.1]octane-3-yl)-2-(((S)-2-(methylene)tetrahydro-1H-pyrrolazin-7a(5H)-yl)methoxy)-7,8-dihydro-5H-thiopyrano[4,3-d]pyrimidine-6,6-dioxide]
- IC50: ≤ 10 nM

Molecule: Cc1cc(N)cc(C2Cc3nc(OC[C@@]45CCCN4C/C(=C\F)C5)nc(N4CC5CCC(C4)N5)c3CS2(=O)=O)c1C(F)(F)F (some centres unmarked) [Compound 35]
- IC50: ≤ 10 nM

Molecule: Cc1cc(N)nc([C@H]2Cc3nc(OC[C@@]45CCCN4C[C@H](F)C5)nc(N4C[C@H]5CC[C@@H](C4)N5)c3CS2(=O)=O)c1C(F)(F)F [Compound 3B, (7R)-7-(6-amino-4-methyl-3-(trifluoromethyl)pyridin-2-yl)-4-((1R,5S)-3,8-diazabicyclo[3.2.1]octane-3-yl)-2-(((2R,7AS)-2-fluorotetrahydro-1H-pyrrolazin-7a(5H)-yl)methoxy)-7,8-dihydro-5H-thiopyrano[4,3-d]pyrimidine 6,6-Dioxide]
- IC50: ≤ 10 nM

Molecule: (7S)-7-(6-amino-4-methyl-3-(trifluoromethyl)pyridin-2-yl)-2-(((2R,7AS)-2-fluorotetr ahydro-1H-pyrrolazin-7a(5H)-yl)methoxy)-4-((R)-3-hydroxy-3-methylpiperidin-1-yl) -7,8-dihydro-5H-thiopyrano[4,3-d]pyrimidine-6,6-dioxide [Compound 8A]
- IC50: ≤ 10 nM

Molecule: Cc1cc(N)c(F)c([C@H]2Cc3nc(OC[C@@]45CCCN4C[C@H](F)C5)nc(N4C[C@H]5CC[C@@H](C4)N5)c3CS2(=O)=O)c1C(F)(F)F [Compound 1B, (7R)-7-(3-amino-2-fluoro-5-methyl-6-(trifluoromethyl)phenyl)-4-((1R,5S)-3,8-diazabicyclo[3.2.1]octane-3-yl)-2-(((2R,7AS)-2-fluorotetrahydro-1H-pyrrolazin-7a(5H)-yl)methoxy)-7,8-dihydro-5H-thiopyrano[4,3-d]pyrimidine 6,6-Dioxide]
- IC50: 10 to 100 nM

Molecule: Cc1cc(N)nc(C2Cc3nc(OC[C@@]45CCCN4CC(=CF)C5)nc(N4CC5CCC(C4)N5)c3CS2(=O)=O)c1C(F)(F)F (stereo partly drawn) [Compound 19, 7-(6-amino-4-methyl-3-(trifluoromethyl)pyridin-2-yl)-2-(((S)-2-(fluoromethylene)tetrahydro-1H-pyrrolazin-7a(5H)-yl)methoxy)-4-(3,8-diazabicyclo[3.2.1]octane-3-yl)-7,8-dihydro-5H-thiopyrano[4,3-d]pyrimidine-6,6-dioxide]
- IC50: ≤ 10 nM

Molecule: Cc1cc(O)nc([C@H]2Cc3nc(OC[C@@]45CCCN4C[C@H](F)C5)nc(N4C[C@H]5CC[C@@H](C4)N5)c3CS2(=O)=O)c1C(F)(F)F [Compound 4B, (7R)-4-((1R,5S)-3,8-diazabicyclo[3.2.1]octane-3-yl)-2-(((2R,7AS)-2-fluorotetrahydro-1H-pyrrolazin-7a(5H)-yl)methoxy)-7-(6-hydroxy-4-methyl-3-(trifluoromethyl)pyridin-2-yl)-7,8-dihydro-5H-thiopyrano[4,3-d]pyrimidine-6,6-dioxide]
- IC50: 10 to 100 nM

Molecule: Cc1cc(N)c(F)c([C@H]2Cc3nc(OC[C@@]45CCCN4C[C@H](F)C5)nc(N4CCC[C@@](C)(O)C4)c3CS2(=O)=O)c1C(F)(F)F [Compound 5B, (7R)-7-(3-amino-2-fluoro-5-methyl-6-(trifluoromethyl)phenyl)-2-(((2R,7AS)-2-fluorotetrahydro-1H-pyrrolazin-7a(5H)-yl)methoxy)-4-((R)-3-hydroxy-3-methylpiperidin-1-yl)-7,8-dihydro-5H-thiopyrano[4,3-d]pyrimidine-6,6-dioxide]
- IC50: ≤ 10 nM

Molecule: C=C1CN2CCC[C@@]2(COc2nc3c(c(N4CC5CCC(C4)N5)n2)CS(=O)(=O)C(c2c(F)c(N)cc(C)c2C(F)(F)F)C3)C1 (stereo partly drawn) [Compound 11, 7-(3-amino-2-fluoro-5-methyl-6-(trifluoromethyl)phenyl)-4-(3,8-diazabicyclo[3.2.1]octane-3-yl)-2-(((S)-2-(methylene)tetrahydro-1H-pyrrolazin-7a(5H)-yl)methoxy)-7,8-d ihydro-5H-thiopyrano[4,3-d]pyrimidine-6,6-dioxide]
- IC50: ≤ 10 nM

Molecule: CC#Cc1cc(N)c(F)c([C@@H]2Cc3nc(OC[C@@]45CCCN4C/C(=C\F)C5)nc(N4CC5CCC(C4)N5)c3CS2(=O)=O)c1C(F)(F)F [Compound 24A, (7S)-7-(3-amino-2-fluoro-5-(prop-1-yn-1-yl)-6-(trifluoromethyl)phenyl)-4-(3,8-diazabicyclo[3.2.1]octane-3-yl)-2-(((S)-2-(fluoromethylene)tetrahydro-1H-pyrrolazin-7a(5 H)-yl)methoxy)-7,8-dihydro-5H-thiopyrano[4,3-d]pyrimidine-6,6-dioxide]
- IC50: ≤ 10 nM

Molecule: Cc1cc(O)c(F)c([C@@H]2Cc3nc(OC[C@@]45CCCN4C[C@H](F)C5)nc(N4C[C@H]5CC[C@@H](C4)N5)c3CS2(=O)=O)c1C(F)(F)F [Compound 2A, (7S)-4-((1R,5S)-3,8-diazabicyclo[3.2.1]octane-3-yl)-7-(2-fluoro-3-hydroxy-5-methyl-6-(trifluoromethyl)phenyl)-2-(((2R,7AS)-2-fluorotetrahydro-1H-pyrrolazin-7a(5H)-yl)methoxy)-7,8-dihydro-5H-thiopyrano[4,3-d]pyrimidine-6,6-dioxide]
- IC50: 10 to 100 nM

Molecule: C=C1CN2CCC[C@@]2(COc2nc3c(c(N4CC5CCC(C4)N5)n2)CS(=O)(=O)[C@H](c2c(F)c(N)cc(C)c2C(F)(F)F)C3)C1 [Compound 11A, (7S)-7-(3-amino-2-fluoro-5-methyl-6-(trifluoromethyl)phenyl)-4-(3,8-diazabicyclo[3. 2.1]octane-3-yl)-2-(((S)-2-(methylene)tetrahydro-1H-pyrrolazin-7a(5H)-yl)methoxy)-7,8-dihydro-5H-thiopyrano[4,3-d]pyrimidine-6,6-dioxide]
- IC50: ≤ 10 nM

Molecule: CC#Cc1cc(N)cc(C2Cc3nc(OC[C@@]45CCCN4CC(=C(F)F)C5)nc(N4CC5CCC(C4)N5)c3CS2(=O)=O)c1C(F)(F)F (some centres unmarked) [Compound 31]
- IC50: ≤ 10 nM

Molecule: Cc1cc(N)nc([C@@H]2Cc3nc(OC[C@@]45CCCN4C[C@H](F)C5)nc(N4CCC[C@@](C)(O)C4)c3CS2(=O)=O)c1C(F)(F)F [Compound 7A, (7S)-7-(6-amino-4-methyl-3-(trifluoromethyl)pyridin-2-yl)-2-(((2R,7AS)-2-fluorotetrahydro-1H-pyrrolazin-7a(5H)-yl)methoxy)-4-((R)-3-hydroxy-3-methylpiperidin-1-yl) -7,8-dihydro-5H-thiopyrano[4,3-d]pyrimidine-6,6-dioxide]
- IC50: ≤ 10 nM

Molecule: C=C1CN2CCC[C@@]2(COc2nc3c(c(N4CC5CCC(C4)N5)n2)CS(=O)(=O)[C@H](c2c(F)c(N)cc(C#CC)c2C(F)(F)F)C3)C1 [Compound 22A, (7S)-7-(3-amino-2-fluoro-5-(prop-1-yn-1-yl)-6-(trifluoromethyl)phenyl)-4-(3,8-diazabicyclo[3.2.1]octane-3-yl)-2-(((S)-2-(methylene)tetrahydro-1H-pyrrolazin-7a(5H)-yl)methoxy)-7,8-dihydro-5H-thiopyrano[4,3-d]pyrimidine-6,6-dioxide]
- IC50: ≤ 10 nM

Molecule: C=C1CN2CCC[C@@]2(COc2nc3c(c(N4CC5CCC(C4)N5)n2)CS(=O)(=O)C(c2nc(N)cc(C)c2C(F)(F)F)C3)C1 (stereo partly drawn) [Compound 20, 7-(6-amino-4-methyl-3-(trifluoromethyl)pyridin-2-yl)-2-(((S)-2-(methylene)tetrahydro-1H-pyrrolazin-7a(5H)-yl)methoxy)-4-(3,8-diazabicyclo[3.2.1]octane-3-yl)-7,8-dihy dro-5H-thiopyrano[4,3-d]pyrimidine-6,6-dioxide]
- IC50: ≤ 10 nM
